According to ChEMBL document CHEMBL1201862, “PubChem BioAssay data set” (2004):
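Cells were grown in 96-well plates and exposed to each compound for 48 hours at five concentrations; endpoints were interpolated linearly between bracketing concentrations, or set to the highest concentration if not reached. Here, GI50 denotes the concentration required for 50% inhibition of growth.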 Active and inactive are the calls of the source. Cut-off read from the data, not from the text of the source: active = GI50 up to about 1.1 µM and inactive = higher.

Assays:
Experiment in all cases: growth of human tumour cells (NCI), 48 h
BT-549 = tested on: BT-549
CCRF-CEM = tested on: CCRF-CEM
COLO 205 = tested on: COLO 205
HOP-92 = tested on: HOP-92
HT-29 = tested on: HT-29
Hs-578T = tested on: Hs-578T
IGROV-1 = tested on: IGROV-1
LOX IMVI = tested on: LOX IMVI
M14 = tested on: M14
MOLT-4 = tested on: MOLT-4
NCI-H226 = tested on: NCI-H226
NCI-H23 = tested on: NCI-H23
OVCAR-3 = tested on: OVCAR-3
OVCAR-8 = tested on: OVCAR-8
RPMI-8226 = tested on: RPMI-8226
RXF 393 = tested on: RXF 393
SNB-19 = tested on: SNB-19
TK-10 = tested on: TK-10
UACC-62 = tested on: UACC-62
UO-31 = tested on: UO-31

SMILES | GI50 (BT-549) | GI50 (CCRF-CEM) | GI50 (COLO 205) | GI50 (HOP-92) | GI50 (HT-29) | GI50 (Hs-578T) | GI50 (IGROV-1) | GI50 (LOX IMVI) | GI50 (M14) | GI50 (MOLT-4) | GI50 (NCI-H226) | GI50 (NCI-H23) | GI50 (OVCAR-3) | GI50 (OVCAR-8) | GI50 (RPMI-8226) | GI50 (RXF 393) | GI50 (SNB-19) | GI50 (TK-10) | GI50 (UACC-62) | GI50 (UO-31)
CN(O)C(=O)c1cccc(Cl)c1 | > 100 µM (inactive) | 60 µM (inactive) | > 100 µM (inactive) | > 100 µM (inactive) | 70.6 µM (inactive) | > 100 µM (inactive) | 91.8 µM (inactive) | > 100 µM (inactive) | > 100 µM (inactive) | 51.2 µM (inactive) | > 100 µM (inactive) | > 100 µM (inactive) | > 100 µM (inactive) | > 100 µM (inactive) | > 100 µM (inactive) | > 100 µM (inactive) | > 100 µM (inactive) | > 100 µM (inactive) | > 100 µM (inactive) | > 100 µM (inactive)
O=C(O)c1ccccc1/C=N/N=C1NCCN1 | > 100 µM (inactive) | > 100 µM (inactive) | > 100 µM (inactive) | 22.7 µM (inactive) | > 100 µM (inactive) | > 100 µM (inactive) | > 100 µM (inactive) | > 100 µM (inactive) | > 100 µM (inactive) | > 100 µM (inactive) | > 100 µM (inactive) | > 100 µM (inactive) | > 100 µM (inactive) | > 100 µM (inactive) | 39.7 µM (inactive) | > 100 µM (inactive) | > 100 µM (inactive) | 46.8 µM (inactive) | > 100 µM (inactive) | 44.4 µM (inactive)
CC(=O)C1=C(C)N(c2ccccc2)C2(O)C=CC(O)=C3C(=O)c4ccccc4C(=O)C312 (stereo not given) | 13.2 µM (inactive) | 3.73 µM (inactive) | 6.18 µM (inactive) | 25.6 µM (inactive) | 4.7 µM (inactive) | 41.7 µM (inactive) | 8.91 µM (inactive) | 4.94 µM (inactive) | 20.3 µM (inactive) | 8.28 µM (inactive) | 25.5 µM (inactive) | 15.8 µM (inactive) | 3.52 µM (inactive) | 9.18 µM (inactive) | 3.37 µM (inactive) | 11.6 µM (inactive) | 17.1 µM (inactive) | 24.7 µM (inactive) | 15.6 µM (inactive) | 16.3 µM (inactive)
CCN1CCc2sc3nc(S)n(C)c(=O)c3c2C1 | > 100 µM (inactive) | < 0.01 µM (active) | > 100 µM (inactive) | > 100 µM (inactive) | > 100 µM (inactive) | > 100 µM (inactive) | > 100 µM (inactive) | > 100 µM (inactive) | > 100 µM (inactive) | > 100 µM (inactive) | > 100 µM (inactive) | > 100 µM (inactive) | > 100 µM (inactive) | > 100 µM (inactive) | > 100 µM (inactive) | > 100 µM (inactive) | > 100 µM (inactive) | > 100 µM (inactive) | > 100 µM (inactive) | > 100 µM (inactive)
COc1cc(NS(C)(=O)=O)ccc1NCc1c[nH]c2ccc3ncccc3c12 | 18.9 µM (inactive) | 1.83 µM (inactive) | 15.6 µM (inactive) | 33 µM (inactive) | 23.2 µM (inactive) | 19.7 µM (inactive) | 37.1 µM (inactive) | 25.2 µM (inactive) | 16.3 µM (inactive) | 5.83 µM (inactive) | 12.3 µM (inactive) | 20.4 µM (inactive) | 23.2 µM (inactive) | 25 µM (inactive) | 11.3 µM (inactive) | 5.55 µM (inactive) | 30.1 µM (inactive) | 28 µM (inactive) | 17.3 µM (inactive) | 26.4 µM (inactive)
CCOC(=O)C12CCC(c3c(C)cccc3C)(O1)C(C(=O)OC)=C2C(=O)OC (stereo not given) | 4 µM (inactive) | 3.06 µM (inactive) | 1.87 µM (inactive) | 4.24 µM (inactive) | 0.748 µM (active) | 3.52 µM (inactive) | 3.6 µM (inactive) | 2.39 µM (inactive) | 2.69 µM (inactive) | 4.74 µM (inactive) | 5.52 µM (inactive) | 3.4 µM (inactive) | 0.889 µM (active) | 5.4 µM (inactive) | 3.92 µM (inactive) | 4.71 µM (inactive) | > 9.64 µM (inactive) | > 10 µM (inactive) | 4.73 µM (inactive) | > 10 µM (inactive)
Clc1ccc(Cn2cc(/C=N/n3cnnc3)c3ccccc32)cc1 | 29.3 µM (inactive) | 73.6 µM (inactive) | 18.5 µM (inactive) | 14.6 µM (inactive) | > 100 µM (inactive) | 37.1 µM (inactive) | 24.1 µM (inactive) | 54.6 µM (inactive) | 57 µM (inactive) | 63.8 µM (inactive) | 1.1 µM (active) | 29.3 µM (inactive) | 86.5 µM (inactive) | 40.4 µM (inactive) | 28.1 µM (inactive) | 16.4 µM (inactive) | 56 µM (inactive) | 4.81 µM (inactive) | 29 µM (inactive) | 30.5 µM (inactive)
COc1nc(N(C)C)nc2c1[n+](C)cn2C [HETEROMINE A] | 28.7 µM (inactive) | 30.3 µM (inactive) | 30.8 µM (inactive) | > 100 µM (inactive) | > 100 µM (inactive) | 40.3 µM (inactive) | > 100 µM (inactive) | 84.5 µM (inactive) | > 100 µM (inactive) | 97.9 µM (inactive) | > 100 µM (inactive) | 22.4 µM (inactive) | 47 µM (inactive) | 44.1 µM (inactive) | 6.08 µM (inactive) | 84.1 µM (inactive) | 25.1 µM (inactive) | > 100 µM (inactive) | > 100 µM (inactive) | > 100 µM (inactive)
